According to PubChem BioAssay (NCI):
Values joined by “and” are separate entries in the source; they are usually repeats but may differ in a detail not shown here. Equal values may be shown once.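 Test compounds were applied to cells in 96-well plates for 48 hours at 5 doses. The concentration for 50% growth inhibition is given as GI50. TGI denotes the concentration required for complete inhibition of growth.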

Key:
Test in all cases: inhibition of tumour cell growth, NCI panel, 48 h
UO-31 renal = system: UO-31 renal
SK-MEL-2 melanoma = system: SK-MEL-2 melanoma
MCF7 breast = system: MCF7 breast
M14 melanoma = system: M14 melanoma
786-0 renal = system: 786-0 renal
NCI/ADR-RES ovarian = system: NCI/ADR-RES ovarian
PC-3 prostate = system: PC-3 prostate
SF-539 CNS = system: SF-539 CNS
A498 renal = system: A498 renal
BT-549 breast = system: BT-549 breast

## NC(=S)N/N=C\c1nccc2c(C(F)(F)C(F)(F)C(F)(F)F)cccc12
UO-31 renal
  GI50: 0.09 µM
  TGI: 0.892 µM
SK-MEL-2 melanoma
  GI50: 0.388 µM
  TGI: 3.23 µM
MCF7 breast
  GI50: 0.0515 µM
  TGI: 7.54 µM
M14 melanoma
  GI50: 0.0662 µM
  TGI: 0.589 µM
786-0 renal
  GI50: 0.26 µM
  TGI: 0.978 µM
NCI/ADR-RES ovarian
  GI50: 0.167 µM
  TGI: 1.65 µM
PC-3 prostate
  GI50: 0.0661 µM
  TGI: > 22.5 µM
SF-539 CNS
  GI50: 0.193 µM
  TGI: 0.772 µM
A498 renal
  GI50: 0.464 µM
  TGI: 2.1 µM
BT-549 breast
  GI50: 0.313 µM
  TGI: 11.7 µM

## CC(=O)Nc1cc2cc(NS(=O)(=O)c3cc(C(F)(F)F)cc(C(F)(F)F)c3)ccc2oc1=O
UO-31 renal
  TGI: > 100 µM
SK-MEL-2 melanoma
  TGI: > 100 µM
MCF7 breast
  TGI: > 100 µM
M14 melanoma
  TGI: > 100 µM
786-0 renal
  TGI: > 100 µM
NCI/ADR-RES ovarian
  TGI: > 100 µM
PC-3 prostate
  TGI: > 100 µM
SF-539 CNS
  TGI: 96.6 µM
A498 renal
  TGI: > 100 µM
BT-549 breast
  TGI: > 100 µM

## CC(C)=CCC/C(C)=C/[C@H]1OC(=O)CC12C[C@H](O)C=CC2=O (stereo not given in full)
UO-31 renal
  GI50: 1.96 µM
SK-MEL-2 melanoma
  GI50: 1.74 µM
  TGI: > 45.1 µM
MCF7 breast
  GI50: 0.421 µM
  TGI: 1.29 µM
M14 melanoma
  GI50: 0.32 µM
  TGI: 0.833 µM
786-0 renal
  GI50: 0.727 µM
  TGI: 1.93 µM
NCI/ADR-RES ovarian
  GI50: 0.553 µM
  TGI: 2.47 µM
PC-3 prostate
  GI50: 0.384 µM
  TGI: 1.42 µM
SF-539 CNS
  GI50: 0.421 µM
  TGI: 1.26 µM
A498 renal
  GI50: 1.47 µM
  TGI: 3.09 µM
BT-549 breast
  GI50: 0.802 µM
  TGI: 3.17 µM

## CCC(=O)OC1=CN2C(=NC(c3ccc(N)cc3)=CC2c2cc(OC)c(OC)c(OC)c2)S1 (stereo not given)
UO-31 renal
  GI50: 3.15 µM
  TGI: 13.6 µM
SK-MEL-2 melanoma
  GI50: 5.93 µM
  TGI: 20.4 µM
MCF7 breast
  GI50: 2.86 µM
  TGI: 14.4 µM
M14 melanoma
  GI50: 4.18 µM
  TGI: 17.6 µM
786-0 renal
  GI50: 4.57 µM
  TGI: 23.4 µM
NCI/ADR-RES ovarian
  GI50: 3.73 µM
  TGI: > 100 µM
PC-3 prostate
  GI50: 6.04 µM
  TGI: 42.9 µM
SF-539 CNS
  GI50: 2.12 µM
  TGI: 6.01 µM
A498 renal
  GI50: 5.3 µM
  TGI: 20.8 µM
BT-549 breast
  GI50: 4.57 µM
  TGI: 19.4 µM

## O=[N+]([O-])c1ccc(NC(=S)N/N=C(\c2ccccc2)c2ccccn2)cc1
UO-31 renal
  TGI: 2.79 µM
SK-MEL-2 melanoma
  GI50: 2.05 µM
  TGI: 4.44 µM and 3.69 µM
MCF7 breast
  GI50: 0.0393 µM
  TGI: 1.55 µM and 2.75 µM
M14 melanoma
  GI50: 1.38 µM
  TGI: 2.33 µM and 2.77 µM
786-0 renal
  GI50: 1.01 µM
  TGI: 2.17 µM and 2.49 µM
NCI/ADR-RES ovarian
  TGI: 5.12 µM
PC-3 prostate
  GI50: 1.16 µM
  TGI: 2.91 µM and 2.54 µM
SF-539 CNS
  GI50: 1.41 µM
  TGI: 2.9 µM and 3.33 µM
A498 renal
  GI50: 1.41 µM
  TGI: 2.71 µM and 3.21 µM
BT-549 breast
  TGI: 3.01 µM

## C=C1C(=O)O[C@H]2[C@H]1CC/C(COC(=O)/C=C/c1c[nH]c3ccccc13)=C\CC[C@@]1(C)O[C@@H]21
UO-31 renal
  GI50: 0.157 µM
  TGI: 0.294 µM
SK-MEL-2 melanoma
  GI50: 0.208 µM
  TGI: 0.412 µM
MCF7 breast
  GI50: 0.226 µM
  TGI: 1.01 µM
M14 melanoma
  GI50: 0.221 µM
  TGI: 0.572 µM
786-0 renal
  GI50: 0.221 µM
  TGI: 0.555 µM
NCI/ADR-RES ovarian
  GI50: 0.357 µM
  TGI: 12.2 µM
PC-3 prostate
  GI50: 0.329 µM
  TGI: 1.52 µM
SF-539 CNS
  GI50: 0.261 µM
  TGI: 0.941 µM
A498 renal
  GI50: 0.278 µM
  TGI: 1.13 µM
BT-549 breast
  GI50: 0.175 µM
  TGI: 0.384 µM

## CC[C@H](C)[C@H](NC(=O)c1nccn1C)C(=O)N(C)[C@H](C[C@@H](OC(C)=O)c1nc(C(=O)N[C@@H](Cc2ccccc2)C[C@H](C)C(=O)OC)cs1)C(C)C
UO-31 renal
  GI50: 2.9 µM
  TGI: > 33.3 µM
SK-MEL-2 melanoma
  GI50: 0.806 µM
  TGI: > 33.3 µM
MCF7 breast
  GI50: 0.187 µM
  TGI: > 33.3 µM
M14 melanoma
  GI50: 0.557 µM
  TGI: 1.6 µM
786-0 renal
  GI50: 1.17 µM
  TGI: 14.5 µM
NCI/ADR-RES ovarian
  GI50: 3.18 µM
  TGI: > 33.3 µM
PC-3 prostate
  GI50: 1.11 µM
  TGI: > 33.3 µM
SF-539 CNS
  GI50: 0.702 µM
  TGI: 1.97 µM
A498 renal
  GI50: 1.11 µM
  TGI: > 33.3 µM
BT-549 breast
  GI50: 0.398 µM
  TGI: 3.94 µM

## S=C(Nc1ccccc1)N1CCn2c1nsc2=Nc1ccccc1
UO-31 renal
  GI50: > 100 µM
  TGI: > 100 µM
SK-MEL-2 melanoma
  GI50: > 100 µM
  TGI: > 100 µM
MCF7 breast
  GI50: > 100 µM
  TGI: > 100 µM
M14 melanoma
  GI50: > 100 µM
  TGI: > 100 µM
786-0 renal
  GI50: 53.3 µM
  TGI: > 100 µM
NCI/ADR-RES ovarian
  GI50: > 100 µM
  TGI: > 100 µM
PC-3 prostate
  GI50: 53.3 µM
  TGI: > 100 µM
SF-539 CNS
  GI50: > 100 µM
  TGI: > 100 µM
A498 renal
  GI50: 77.9 µM
  TGI: > 100 µM
BT-549 breast
  GI50: 76.7 µM
  TGI: > 100 µM

## COc1cccc2ccc3c(c12)C(=O)OC31CCc2c(C)cccc21 (stereo not given)
UO-31 renal
  TGI: 26.3 µM
SK-MEL-2 melanoma
  TGI: > 46.4 µM
MCF7 breast
  TGI: 41.9 µM
M14 melanoma
  TGI: > 46.4 µM
786-0 renal
  TGI: > 46.4 µM
NCI/ADR-RES ovarian
  TGI: > 100 µM
PC-3 prostate
  TGI: > 100 µM
SF-539 CNS
  TGI: > 100 µM
A498 renal
  TGI: 22.7 µM
BT-549 breast
  TGI: > 100 µM

## CCC1OC(/C(C)=C/C(C)/C=C/C2C(C)C2/C=C/C2OC(CC(=O)O)CC(O)C2O)CC=C1C (stereo not given)
UO-31 renal
  GI50: > 50 µM
  TGI: > 50 µM
SK-MEL-2 melanoma
  GI50: > 50 µM
  TGI: > 50 µM
MCF7 breast
  GI50: > 50 µM
  TGI: > 50 µM
M14 melanoma
  GI50: > 50 µM
  TGI: > 50 µM
786-0 renal
  GI50: > 50 µM
  TGI: > 50 µM
NCI/ADR-RES ovarian
  GI50: 14.4 µM
  TGI: > 50 µM
PC-3 prostate
  GI50: > 50 µM
  TGI: > 50 µM
SF-539 CNS
  GI50: > 50 µM
  TGI: > 50 µM
A498 renal
  GI50: > 50 µM
  TGI: > 50 µM
BT-549 breast
  GI50: > 50 µM
  TGI: > 50 µM

## O=c1oc2cc(OS(=O)(=O)c3ccccc3)ccc2c2c1CCCCC2
UO-31 renal
  GI50: 8 µM
  TGI: > 100 µM
SK-MEL-2 melanoma
  GI50: > 100 µM
  TGI: > 100 µM
MCF7 breast
  GI50: 5.14 µM
  TGI: > 100 µM
M14 melanoma
  GI50: 8.8 µM
  TGI: > 100 µM
786-0 renal
  GI50: 6.24 µM
  TGI: > 100 µM
NCI/ADR-RES ovarian
  GI50: 4.53 µM
  TGI: > 100 µM
PC-3 prostate
  GI50: 2.61 µM
  TGI: > 100 µM
SF-539 CNS
  GI50: 6.68 µM
  TGI: > 100 µM
A498 renal
  GI50: > 100 µM
  TGI: > 100 µM
BT-549 breast
  GI50: 5.44 µM
  TGI: > 100 µM

## C=C1C[C@@H]2[C@H](CC[C@]3(C)C(=O)CC[C@@H]23)[C@@]2(C)C=CC(=O)C=C12
UO-31 renal
  GI50: 22 µM
  TGI: > 56.5 µM
SK-MEL-2 melanoma
  TGI: > 28.3 µM
MCF7 breast
  GI50: 14.6 µM
  TGI: > 62.2 µM
M14 melanoma
  GI50: 20.4 µM
  TGI: > 48.7 µM
786-0 renal
  GI50: 36.9 µM
  TGI: > 100 µM
NCI/ADR-RES ovarian
  GI50: 30.6 µM
  TGI: > 92 µM
PC-3 prostate
  GI50: 66.9 µM
  TGI: > 100 µM
SF-539 CNS
  GI50: 25.2 µM
  TGI: 74.4 µM
A498 renal
  GI50: > 50.8 µM
  TGI: > 90.3 µM
BT-549 breast
  GI50: 28.9 µM
  TGI: > 100 µM

## N#Cc1ccc2c(c1)C(=O)c1c-2n(CCCN=[N+]=[N-])c(=O)c2cc([N+](=O)[O-])ccc12
UO-31 renal
  GI50: 13.1 µM
  TGI: > 50 µM
SK-MEL-2 melanoma
  GI50: > 50 µM
  TGI: > 50 µM
MCF7 breast
  GI50: 1.35 µM
  TGI: > 50 µM
M14 melanoma
  GI50: 29.9 µM
  TGI: > 50 µM
786-0 renal
  GI50: 23 µM
  TGI: > 50 µM
NCI/ADR-RES ovarian
  GI50: > 50 µM
  TGI: > 50 µM
PC-3 prostate
  GI50: > 50 µM
  TGI: > 50 µM
SF-539 CNS
  GI50: > 50 µM
  TGI: > 50 µM
A498 renal
  GI50: > 50 µM
  TGI: > 50 µM
BT-549 breast
  GI50: 5.49 µM
  TGI: > 50 µM
